# Experimental data taken from patent publication US20250019389A1, “HETEROCYCLIC AGONISTS” (Gasherbrum Bio, Inc., priority 2023, published 2025).
# pEC50: −log10 of the molar value.
# Biological target: GLP-1 Receptor (Homo sapiens (Human), UniProt P43220)
# Experiment: GLP-1R agonist cAMP stimulation assay
# Format: cell-based
# Settings: cAMP stimulation in HEK293/GLP1R/CRE-LUC cells, 30 min at 37° C., cAMP dynamic 2 Kit (Cisbio)
# Protocol: Activation of GLP-1 receptor is known to stimulate cyclic AMP (cAMP) production in cells which indicates primary coupling to the G as subunit of the G protein heterotrimeric complex.
# To optimize functional activity directed toward G αs coupling, a HEK293/CRE-Luc cell line developed by HDB stably expressing the GLP-1 Receptor was used. 200× concentration of compound working solutions were prepared (Agilent Technologies Bravo) with ½ log serial dilution in 384-well Echo LDV plate (Labcyte, Cat #LP-0200). 50 nL/well 200× concentration of compound working solutions were moved to 384-well white low volume plate (Greiner, Cat #784075) using Labcyte ECH0550.1×10^5 cells/mL HEK293/GLP1R/CRE-LUC (HD Biosciences) cell suspensions prepared with assay buffer [DPBS containing 0.5 mM IBMX (Sigma, Cat #I5879) and 0.1% BSA (GENVIEW, Cat #FA016-100 g)], 10 μL cell suspensions were added to each well of previous generated assay plate which already contains 50 nL compound at 200× concentration using ThermoFisher Multidrop Combi (1000 cells/well). Seal the plate and incubate at 37° C. with 5% CO2 for 30 min.
# After incubation the cAMP assay signal was generated using cAMP dynamic 2 Kit (Cisbio). 5 μL cAMP-d2 working solution was added to each well, followed with 5 μL Anti-cAMP antibody-cryptate working solution added to each well using ThermoFisher Multidrop Combi. Incubate at room temperature for 1 hour protected from light. Read the fluorescence at 665 and 615 nm with Reader PerkinElmer EnVision.
# GLP-1 Receptor, sequence (P43220 24-463, species assumed): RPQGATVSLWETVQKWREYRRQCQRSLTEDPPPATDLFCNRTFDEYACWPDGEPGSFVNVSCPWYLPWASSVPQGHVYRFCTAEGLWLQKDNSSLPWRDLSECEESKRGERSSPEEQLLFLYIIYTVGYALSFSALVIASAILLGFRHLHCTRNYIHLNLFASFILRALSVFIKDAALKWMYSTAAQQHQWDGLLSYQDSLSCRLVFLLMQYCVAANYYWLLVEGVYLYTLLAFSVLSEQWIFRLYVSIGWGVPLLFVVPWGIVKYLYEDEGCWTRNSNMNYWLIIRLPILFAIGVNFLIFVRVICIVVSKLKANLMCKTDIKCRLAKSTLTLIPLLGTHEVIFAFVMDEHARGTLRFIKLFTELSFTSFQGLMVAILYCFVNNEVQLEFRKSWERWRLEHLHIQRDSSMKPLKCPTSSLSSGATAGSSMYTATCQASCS
row,pEC50,Structure (SMILES)
1,10.54,"CCP(=O)(c1ccc(-n2ccn(-c3c4c(nn3-c3cc(C)c(F)c(C)c3)CCN(C(=O)c3cc5cc(C6CCOCC6)ccc5n3[C@@]3(c5noc(=O)[nH]5)C[C@@H]3C)[C@H]4C)c2=O)cc1NC)C(C)O (single isomer, unassigned) [Compound 106]"
2,10.51,"CCP(=O)(c1ccc(-n2ccn(-c3c4c(nn3-c3cc(C)c(F)c(C)c3)CCN(C(=O)c3cc5cc(C6CCOCC6)ccc5n3[C@@]3(c5noc(=O)[nH]5)C[C@@H]3C)[C@H]4C)c2=O)cc1NC)C(C)O (single isomer, unassigned) [Compound 108]"
3,10.46,"CCP(=O)(c1ccc(-n2ccn(-c3c4c(nn3-c3cc(C)c(F)c(C)c3)CCN(C(=O)c3cc5cc(C6CCOCC6)ccc5n3[C@@]3(c5noc(=O)[nH]5)C[C@@H]3C)[C@H]4C)c2=O)cc1NC)C(C)O (single isomer, unassigned) [Compound 105]"
4,10.38,"CCP(=O)(c1ccc(-n2ccn(-c3c4c(nn3-c3cc(C)c(F)c(C)c3)CCN(C(=O)c3cc5cc(C6CCOCC6)ccc5n3[C@@]3(c5noc(=O)[nH]5)C[C@@H]3C)[C@H]4C)c2=O)cc1NC)C(C)O (single isomer, unassigned) [Compound 107]"
5,10.77,"CCP(=O)(CCO)c1ccc(-n2ccn(-c3c4c(nn3-c3cc(C)c(F)c(C)c3)CCN(C(=O)c3cc5cc(C6CCOCC6)ccc5n3[C@@]3(c5noc(=O)[nH]5)C[C@@H]3C)[C@H]4C)c2=O)cc1NC (single isomer, unassigned) [Compound 102]"
6,10.92,"CCP(=O)(CCO)c1ccc(-n2ccn(-c3c4c(nn3-c3cc(C)c(F)c(C)c3)CCN(C(=O)c3cc5cc(C6CCOCC6)ccc5n3[C@@]3(c5noc(=O)[nH]5)C[C@@H]3C)[C@H]4C)c2=O)cc1NC (single isomer, unassigned) [Compound 103]"
